Consider 4 compounds from article PMC8585049, “Z-DNA as a Tool for Nuclease-Free DNA Methyltransferase Assay” (International Journal of Molecular Sciences, 2021).

“Also recorded” adds a separate entry of the source. Like-named read-outs stand apart in the source and are kept apart here.

The target of one assay is T1, M.SssI (Spiroplasma monobiae, UniProt P15840).
T1 construct: purchased NEB (New England Biolabs, Inc., Ipswich, MA, USA)
The assay is described as follows: smFRET B-Z transition-based DNA methylation (DMT inhibition) assay with M.SssI, UM core substrate. Type of assay: biochemical. The procedure: (§1) Here we define the degree of inhibition as: DOI=P(Z;DMT)−P(Z;DMT+drug)/P(Z;DMT)−P(Z;0) where P(Z;0) is the population of Z-DNA without any treatment (neither DMT nor inhibitor drug), P(Z;DMT) the Z-DNA population after incubation with DMT, and P(Z;DMT+drug) the Z-DNA population after incubation with DMT together with an inhibitor drug. […] On the opposite limit, the inhibition would be complete (DOI = 1) if P(Z;DMT+drug) completely reduces to the level of P(Z;0) . We employed the UM and HM molecules as substrates for M.SssI and DNMT1, respectively. We used 50 mM Mg^2+ and applied 80 U/mL M.SssI or 100 U/mL DNMT1. […] To check this possibility, we reduced SAM to 10 μM and repeated the inhibitor assay.
(§2) DMTs can change cytosine to methylcytosine by converting SAM to SAH (S-adenosyl homocysteine). In the inhibitor-free assay, we added reagents to water (or 0, 1.75, and 2.5% DMSO in water in control reactions for inhibitor assays) in the following order: SAM, 10× buffer, DNA, and M.SssI or DNMT1. In the DNMT1 assay, the reaction mixture of 20 μL contained 25 nM DNA duplex and 20~400 U/mL (in the inhibitor-free assays) or 100 U/mL (in the inhibitor assays) DNMT1 in the reaction buffer (160 μM SAM and 100 μg/mL BSA in 1× DNMT1 buffer (200 mM NaCl, 50 mM Tris-HCl, 1 mM EDTA, 1 mM DTT, 50% glycerol, pH 7.5)). In the M.SssI assay, the reaction mixture of 20 μL contained 25 nM DNA duplex and 10~200 U/mL (in the inhibitor-free assays) or 80 U/mL (in the inhibitor assays) M.SssI in the reaction buffer (160 μM SAM in 1× NEB buffer 2 (50 mM NaCl, 10 mM Tris-HCl, 10 mM MgCl2, 1 mM DTT, pH 7.9)). The effect of DMSO itself was tested because it was used in a solvent for DMT inhibitors. […] The mixture was incubated at 37 °C. After various lengths of incubation time (typically 2 h), the methylation reaction was stopped by heat inactivation of the enzymes at 65 °C for 20 min and the reaction mixtures were stored at −20 °C until the future experiments with the smFRET technique.
In the DMT inhibition assays, DMT inhibitors at various concentrations were added together with either M.SssI or DNMT1 when the enzyme was added to the reaction tube (Figure 4A). The reaction and analysis were performed identically except for the addition of inhibitors. […] In these assays, we varied the concentrations of the reagents (proteins or inhibitors) or incubation times. […]

For assay [1], the target named is T2, human DNA methyltransferase 1 (DNMT1) (Homo sapiens, UniProt P26358).
T2 construct: purchased NEB (New England Biolabs, Inc., Ipswich, MA, USA)
T2 sequence (P26358 whole entry): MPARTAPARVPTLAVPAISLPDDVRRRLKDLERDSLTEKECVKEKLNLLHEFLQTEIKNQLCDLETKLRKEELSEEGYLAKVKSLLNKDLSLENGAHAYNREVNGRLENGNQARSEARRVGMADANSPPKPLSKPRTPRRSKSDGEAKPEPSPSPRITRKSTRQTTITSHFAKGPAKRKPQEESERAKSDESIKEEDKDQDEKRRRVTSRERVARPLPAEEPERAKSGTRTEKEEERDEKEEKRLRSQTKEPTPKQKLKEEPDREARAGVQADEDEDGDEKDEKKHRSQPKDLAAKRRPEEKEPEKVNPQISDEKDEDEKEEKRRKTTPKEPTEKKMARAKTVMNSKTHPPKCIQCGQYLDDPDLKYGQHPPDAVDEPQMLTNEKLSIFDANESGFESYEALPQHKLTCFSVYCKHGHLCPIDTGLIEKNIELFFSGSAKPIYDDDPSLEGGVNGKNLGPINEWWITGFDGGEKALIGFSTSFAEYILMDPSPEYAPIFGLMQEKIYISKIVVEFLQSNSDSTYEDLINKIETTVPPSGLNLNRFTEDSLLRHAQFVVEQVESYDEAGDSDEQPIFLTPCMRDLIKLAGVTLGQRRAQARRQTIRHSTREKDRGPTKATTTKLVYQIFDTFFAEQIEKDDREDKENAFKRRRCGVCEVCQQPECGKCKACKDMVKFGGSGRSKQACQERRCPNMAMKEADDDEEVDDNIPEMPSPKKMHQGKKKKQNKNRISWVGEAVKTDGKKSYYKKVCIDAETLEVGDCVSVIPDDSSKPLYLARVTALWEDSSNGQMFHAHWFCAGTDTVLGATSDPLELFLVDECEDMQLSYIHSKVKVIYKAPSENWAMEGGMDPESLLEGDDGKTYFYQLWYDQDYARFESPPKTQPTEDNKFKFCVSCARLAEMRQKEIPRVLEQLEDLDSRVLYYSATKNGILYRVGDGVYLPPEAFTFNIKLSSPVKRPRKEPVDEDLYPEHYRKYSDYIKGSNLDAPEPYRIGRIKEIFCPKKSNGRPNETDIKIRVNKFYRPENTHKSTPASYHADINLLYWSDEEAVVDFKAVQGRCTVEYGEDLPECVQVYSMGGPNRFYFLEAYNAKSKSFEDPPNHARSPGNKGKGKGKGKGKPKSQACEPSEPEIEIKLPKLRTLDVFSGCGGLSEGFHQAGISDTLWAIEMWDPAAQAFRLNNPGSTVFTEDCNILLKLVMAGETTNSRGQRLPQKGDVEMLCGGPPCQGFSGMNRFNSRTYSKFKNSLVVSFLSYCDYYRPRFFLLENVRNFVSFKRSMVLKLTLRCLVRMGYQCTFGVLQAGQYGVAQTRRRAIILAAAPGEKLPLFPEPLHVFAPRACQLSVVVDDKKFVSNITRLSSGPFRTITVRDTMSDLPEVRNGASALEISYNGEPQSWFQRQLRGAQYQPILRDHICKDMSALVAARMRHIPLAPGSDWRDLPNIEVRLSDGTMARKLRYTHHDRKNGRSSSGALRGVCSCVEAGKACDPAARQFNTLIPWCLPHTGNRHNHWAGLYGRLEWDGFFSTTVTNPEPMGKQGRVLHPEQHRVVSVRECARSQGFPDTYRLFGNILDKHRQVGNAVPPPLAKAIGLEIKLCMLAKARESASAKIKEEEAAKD
Kind of assay: smFRET B-Z transition-based DNA methylation (DMT inhibition) assay with DNMT1, HM core substrate. The format is biochemical. As to conditions: 100 U/mL DNMT1, HM core, 160 μM SAM, 50 mM Mg2+, 2-h incubation; read-out: IC50 (degree of inhibition of DNMT1 methylation activity). The procedure:
as §1
as §2, with “technique. […]” for “technique.”

T1 sequence (P15840 whole entry): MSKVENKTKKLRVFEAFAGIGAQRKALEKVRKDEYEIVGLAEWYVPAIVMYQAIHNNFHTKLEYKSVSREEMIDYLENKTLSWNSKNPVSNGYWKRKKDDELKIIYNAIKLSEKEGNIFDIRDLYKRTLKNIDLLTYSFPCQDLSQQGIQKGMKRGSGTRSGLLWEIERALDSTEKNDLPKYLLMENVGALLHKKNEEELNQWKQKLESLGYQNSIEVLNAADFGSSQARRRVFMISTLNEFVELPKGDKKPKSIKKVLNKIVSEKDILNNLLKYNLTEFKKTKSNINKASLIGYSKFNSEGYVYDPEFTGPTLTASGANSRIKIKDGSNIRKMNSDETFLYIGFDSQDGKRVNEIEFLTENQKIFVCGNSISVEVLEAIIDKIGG

As to `C[S+](C)[O-]` [DMSO], the “Effect of [DMSO] on DNA methylation activity of M.SssI” value on M.SssI ([DMSO] up to 5 %, [M.SssI] = 80 U/ml, 50 mM Mg2+, Figure S1) is “remains unchanged; also recorded: negligible effect”.

With `O=C(O[C@@H]1Cc2c(O)cc(O)cc2O[C@@H]1c1cc(O)c(O)c(O)c1)c1cc(O)c(O)c(O)c1` [EGCG, epigallocatechin gallate], the IC50 at M.SssI (80 U/mL M.SssI, UM core, 160 μM SAM, 50 mM Mg2+, 2-h incubation, read-out: IC50 (degree of inhibition of M.SssI methylation activity)) was approximately 80 µM; at M.SssI ([SAM] = 10 μM, M.SssI, Figure S8, read-out: IC50 (degree of inhibition of M.SssI methylation activity) with low [SAM]) it was less than 5 µM; in assay [1], approximately 100 µM.

On to `COc1cc(/C=C/C(=O)CC(=O)/C=C/c2ccc(O)c(OC)c2)ccc1O` [curcumin], for which the IC50 in assay [1] is approximately 1.3 µM.

As to `O=c1c(-c2ccc(O)cc2)coc2cc(O)cc(O)c12` [genistein], the IC50 against M.SssI (IC50 (degree of inhibition of M.SssI methylation activity), 80 U/mL M.SssI, UM core, 160 μM SAM, 50 mM Mg2+, 2-h incubation) is approximately 600 µM; in assay [1], approximately 400 µM.
